One assay has as its target T1, ITK (Homo sapiens, UniProt Q08881).
T1 construct: purchased Promega Corporation
T1 sequence (Q08881 1-620): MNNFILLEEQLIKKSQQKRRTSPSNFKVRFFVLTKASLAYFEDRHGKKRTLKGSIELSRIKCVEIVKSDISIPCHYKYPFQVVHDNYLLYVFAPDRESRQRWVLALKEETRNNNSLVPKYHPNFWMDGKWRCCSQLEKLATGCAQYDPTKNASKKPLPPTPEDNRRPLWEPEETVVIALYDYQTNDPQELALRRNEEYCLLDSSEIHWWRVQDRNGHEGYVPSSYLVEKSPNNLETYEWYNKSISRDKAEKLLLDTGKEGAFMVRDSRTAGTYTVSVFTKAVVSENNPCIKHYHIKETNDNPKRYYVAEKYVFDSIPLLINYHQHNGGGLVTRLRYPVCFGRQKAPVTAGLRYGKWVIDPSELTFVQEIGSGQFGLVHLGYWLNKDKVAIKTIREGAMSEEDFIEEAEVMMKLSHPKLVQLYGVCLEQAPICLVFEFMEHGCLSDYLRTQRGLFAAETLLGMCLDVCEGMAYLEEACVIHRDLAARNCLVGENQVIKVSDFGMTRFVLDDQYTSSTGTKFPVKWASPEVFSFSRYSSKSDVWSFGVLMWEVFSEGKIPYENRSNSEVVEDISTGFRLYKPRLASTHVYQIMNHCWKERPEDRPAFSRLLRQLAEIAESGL
As to the kind of experiment: ADP-Glo + ITK Kinase enzyme system kit, inhibitory activity against ITK. The note with it: ITK enzyme 0.4 ng/ul, ATP final concentration of 25 ul, 30° C. for 1 hour, luminescence, duplicate. Type of assay: biochemical. Here is the method:
(§1) Inhibitory activities against BTK and ITK were measured for the compounds prepared in the above Examples as follows.
The inhibitory activity against ITK was evaluated using ‘ADP-Glo™+ITK Kinase enzyme system’ kit (Promega Corporation). In a white 96-well plate, 10 ul of ITK enzyme prepared so as to have a final concentration of 0.4 ng/ul was mixed with 5 ul of compounds having a final concentration of 1 uM in the case of evaluating a single concentration of compound and a concentration of 1000, 300, 100, 30, 10, 3, 1, 0.3, 0.1 and 0.03 nM in the case of IC50 evaluation, and then reacted at room temperature for 15 minutes. To the plate on which reactions were completed, 5 ul of substrate and 5 ul of ATP prepared so as to have a final concentration of […] added and then allowed to react at 30° C. for 1 hour. All wells of the plate were treated with 25 ul of ADP-Glo™ reagent and then allowed to react at 30° C. for 40 minutes. After that, all wells were treated with 50 ul of kinase detection buffer, and then allowed to react at 30° C. for 30 minutes under light shielding conditions. For the plate on which all reactions were completed, luminescence was measured and the results were calculated. Evaluation was carried out in duplicate, and negative control and positive control were calculated depending on whether or not the enzyme was added without treatment of the compound. The IC50 was calculated based on the calculated values.

In a further assay the target is T2, BTK (Homo sapiens, UniProt Q06187).
T2 construct: purchased Promega Corporation
T2 sequence (Q06187 whole entry): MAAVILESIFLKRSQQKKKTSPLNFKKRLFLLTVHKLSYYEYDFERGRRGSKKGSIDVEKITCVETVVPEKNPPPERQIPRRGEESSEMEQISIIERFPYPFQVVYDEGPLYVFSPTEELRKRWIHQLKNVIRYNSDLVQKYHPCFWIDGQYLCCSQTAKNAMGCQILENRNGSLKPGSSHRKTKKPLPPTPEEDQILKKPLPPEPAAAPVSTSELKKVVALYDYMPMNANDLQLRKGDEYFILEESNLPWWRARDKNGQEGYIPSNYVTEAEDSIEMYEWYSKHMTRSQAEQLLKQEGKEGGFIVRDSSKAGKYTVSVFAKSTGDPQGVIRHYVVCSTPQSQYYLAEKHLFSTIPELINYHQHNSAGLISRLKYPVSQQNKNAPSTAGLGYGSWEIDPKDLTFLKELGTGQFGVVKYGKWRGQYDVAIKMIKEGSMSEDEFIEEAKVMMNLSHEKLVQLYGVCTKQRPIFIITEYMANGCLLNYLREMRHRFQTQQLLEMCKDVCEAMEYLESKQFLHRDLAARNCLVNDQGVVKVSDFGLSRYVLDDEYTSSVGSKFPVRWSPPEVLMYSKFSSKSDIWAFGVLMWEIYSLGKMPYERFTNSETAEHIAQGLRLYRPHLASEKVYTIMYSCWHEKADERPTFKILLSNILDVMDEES
Description: ADP-Glo + BTK Kinase enzyme system kit, inhibitory activity against BTK. Type of assay: biochemical. The note with it: BTK enzyme 1 ng/ul, ATP 10 μM, 30° C. for 1 hour, luminescence, duplicate. The method, then:
as §1
The inhibitory activities against BTK were evaluated using ‘ADP-Glo™+BTK Kinase enzyme system’ kit (Promega Corporation). In a white 96-well plate, 10 ul of BTK enzyme prepared so as to have a final concentration of 1 ng/ul was mixed with 5 μl of compounds having a final concentration of […] the case of evaluating a single concentration of compound and a concentration of 1000, 300, 100, 30, 10, 3, 1, 0.3, 0.1 and 0.03 nM in the case of IC50 evaluation, and then reacted at room temperature for 15 minutes. 5 ul of substrate and 5 ul of ATP prepared so as to have a final concentration of 10 μM were added to the plate on which reactions were completed, and then allowed to react at 30° C. for 1 hour. All wells of the plate were treated with 25 ul of ADP-Glo™ reagent and allowed to react at 30° C. for 40 minutes. After that, all wells were treated with 50 ul of kinase detection buffer, and then reacted at 30° C. for 30 minutes under light shielding conditions. For the plate on which all reactions were completed, luminescence was measured and the results were calculated. Evaluation was carried out in duplicate, and negative control and positive control were calculated depending on whether or not the enzyme was added without treatment of the compound. The IC50 was calculated based on the calculated values.
In general terms: ADP-Glo turns the ADP formed in a reaction into a luminescent signal.

Our source for the IC50 values is patent publication US11149019B2, “Phenylpyridine derivative and pharmaceutical composition comprising the same” (Daewoong Pharmaceutical Co., Ltd., priority 2017, dated 2021).

pIC50: −log10 of the molar value.

One may read the pIC50 as −log10 of the IC50, conventionally taken in molar units. As to `C=CC(=O)Nc1cccc(-c2cc(CN3CCN(C)CC3)cc(Nc3ncc(C)s3)n2)c1` [Compound 37, N-(3-(4-((4-methylpiperazin-1-yl)methyl)-6-(5-methylthiazol-2-ylamino)pyridin-2-yl)phenyl)acrylamide], the figures for the pIC50 on ITK and at BTK were 8.26 and 9.05, respectively. On the same counts, the results for `C=CC(=O)Nc1cccc(-c2cc(CN3CCOCC3)cc(Nc3ncc(C(F)(F)F)s3)n2)c1` [Compound 51] are 8.66 and 8.28. For `C=CC(=O)Nc1cccc(-c2cc(-c3ccccc3)cc(Nc3cc(C)[nH]n3)n2)c1` [Compound 23, N-(3-(6-(5-methyl-1H-pyrazol-3-ylamino)-4-phenylpyridin-2-yl)phenyl)acrylamide], in that order: 6.89 and 7.88. Consider `C=CC(=O)Nc1cccc(-c2cc(C)cc(Nc3ncc(C)s3)n2)c1` [Compound 26, N-(3-(4-methyl-6-((5-methylthiazol-2-yl)amino)pyridin-2-yl)phenyl)acrylamide], for which the values for the pIC50 on ITK and at BTK were 7.12 and 7.98, respectively.

Regarding `C=CC(=O)Nc1cc(-c2cc(CN3CCOCC3)cc(Nc3ncc(C)s3)n2)ccc1F` [Compound 56, N-(2-fluoro-5-(6-((5-methylthiazol-2-yl)amino)-4-(morpholinomethyl)pyridin-2-yl)phenyl)acrylamide], the pIC50 at ITK is 8.38; on BTK it was 8.74. For the compound `C=CC(=O)Nc1cccc(-c2cc(Cc3ccccc3)cc(Nc3cc(C(C)c4ccc(C)cc4)[nH]n3)n2)c1` (stereo not drawn) [Compound 9], the pIC50 on ITK and on BTK was below 6.00 in each case. Consider `C=CC(=O)Nc1cccc(-c2cc(Cc3ccccc3)cc(Nc3cc(C4CCCC4)[nH]n3)n2)c1` [Compound 4, N-(3-(4-benzyl-6-(5-cyclopentyl-1H-pyrazol-3-ylamino)pyridin-2-yl)phenyl)acrylamide], for which the pIC50 was 7.04 on ITK and 6.20 on BTK.

For `C=CC(=O)Nc1cccc(-c2cc(CN3CCN(CC)CC3)cc(Nc3ncc(C)s3)n2)c1` [Compound 53, N-(3-(4-((4-ethylpiperazin-1-yl)methyl)-6-(5-methylthiazol-2-yl)amino)pyridin-2-yl)phenylacrylamide], the pIC50 is 8.42 at ITK and 8.64 on BTK. For `C=CC(=O)Nc1cccc(-c2cc(CN3CCN(CC(F)(F)F)CC3)cc(Nc3ncc(C)s3)n2)c1` [Compound 50, N (3(6(5methylthiazol-2-ylamino)-4-((4-(2,2,2-trifluoroethyl)piperazin-1-yl)methyl)pyridin-2-yl)phenyl)acrylamide], the pIC50 on ITK was 8.30; on BTK, 8.66. Regarding `C=CC(=O)Nc1cccc(-c2cc(CN3CCOCC3)cc(NC(=O)C3CC3)n2)c1` [Compound 42, N-(6-(3-acrylamidophenyl)-4-(morpholinomethyl)pyridin-2-yl)cyclopropanecarboxamide], the pIC50 on ITK is below 6.00; at BTK, below 6.40.

Regarding `C=CC(=O)Nc1cccc(-c2cc(C)cc(Nc3ccccn3)n2)c1` [Compound 18, N-(3-(4-methyl-6-(pyridin-2-ylamino)pyridin-2-yl)phenyl)acrylamide], the values for the pIC50 on ITK and at BTK were below 6.00 and 7.54, respectively. On the same counts, the results for `C/C=C/C(=O)Nc1cccc(-c2cc(Cc3ccccc3)cc(Nc3cc(C)[nH]n3)n2)c1` [Compound 38, (E)-N-(3-(4-benzyl-6-(5-methyl-1H-pyrazol-3-ylamino)pyridin-2-yl)phenyl)but-2-enamide] are 6.27 and below 6.40. As for `C=CC(=O)Nc1cccc(-c2cc(Cc3ccccc3)cc(Nc3cc(-c4ccccc4)[nH]n3)n2)c1` [Compound 5, N-(3-(4-benzyl-6-((5-phenyl-1H-pyrazol-3-yl)amino)pyridin-2-yl)phenyl)acrylamide], the pIC50 at ITK was 6.50; on BTK, 6.11.

Take `C=CC(=O)Nc1cccc(-c2cc(Cc3cccnc3)cc(Nc3cc(C)[nH]n3)n2)c1` [Compound 72, N-(3-(6-((5-methyl-1H-pyrazol-3-yl)amino)-4-(pyridin-3-ylmethyl)pyridin-2-yl)phenyl)acrylamide]: the pIC50 at ITK is 8.10; on BTK, 8.48. On the same counts, the results for `C=CC(=O)Nc1cccc(-c2cc(CN3CCOCC3)cc(Nc3cc(C)on3)n2)c1` [Compound 40, N-(3-(6-((5-methylisoxazol-3-ylamino)-4-(morpholino)methyl)pyridin-2-yl)phenyl)acrylamide] are below 6.00 and below 6.40. On the same counts, the results for `C=CC(=O)Nc1cccc(-c2cc(Cc3ccccc3)cc(Nc3cc(C)[nH]n3)n2)c1` [Compound 2, N-(3-(4-benzyl-6-(5-methyl-1H-pyrazol-3-ylamino)pyridin-2-yl)phenyl)acrylamide] are 7.05 and 7.62. For `C=CC(=O)Nc1cccc(-c2cc(CN3CCN(CCC)CC3)cc(Nc3ncc(C)s3)n2)c1` [Compound 48, N-(3-(6-((5-methylthiazol-2-yl)amino)-4-((4-propylpiperazin-1-yl)methyl)pyridin-2-yl)phenyl)acrylamide], in that order: 8.37 and 8.96. Regarding `C=CC(=O)Nc1cccc(-c2cc(Cc3ccccc3)cc(Nc3cc(-c4ccc(Oc5ccccc5)cc4)[nH]n3)n2)c1` [Compound 7, N-(3-(4-benzyl-6-((5-(4-phenoxyphenyl)-1H-pyrazol-3-yl)amino)pyridin-2-yl)phenyl)acrylamide], the pIC50 was below 6.30 on ITK and 6.91 on BTK. Take `C=CC(=O)Nc1cccc(-c2cc(CN3CCCN(C)CC3)cc(Nc3ncc(C)s3)n2)c1` [Compound 55, N-(3-(4-((4-methyl-1,4-diazepan-1-yl)methyl)-6-(5-methylthiazol-2-ylamino)pyridin-2-yl)phenyl)acrylamide]: the pIC50 was 7.87 on ITK and 7.97 on BTK. For `C=CC(=O)Nc1cccc(-c2cc(CN3CCOCC3)cc(Nc3cc(C)[nH]n3)n2)c1` [Compound 22, N-(3-(6-((5-methyl-1H-pyrazol-3-yl)amino)-4-(morpholinomethyl)pyridin-2-yl)phenyl)acrylamide], in that order: 7.11 and 8.21. In the case of `C=CC(=O)Nc1cccc(-c2cc(C)cc(Nc3cc(CC)[nH]n3)n2)c1` [Compound 24, N-(3-(6-(5-ethyl-1H-pyrazol-3-ylamino)-4-methylpyridin-2-yl)phenyl)acrylamide], the figures for the pIC50 on ITK and at BTK were 6.80 and 7.96, respectively.

As for `C=CC(=O)Nc1cccc(-c2cc(CN3C[C@@H](C)O[C@@H](C)C3)cc(Nc3ncc(C)s3)n2)c1` [Compound 46, N-(3-(4-(((2S,6R)-2,6-dimethylmorpholino)methyl)-6-(5-methylthiazol-2-ylamino)pyridin-2-yl)phenyl)acrylamide], the pIC50 at ITK was 8.80; on BTK it was 8.77. Take `C=CC(=O)Nc1cccc(-c2cc(CN3CCN(C(=O)C(C)C)CC3)cc(Nc3ncc(C)s3)n2)c1` [Compound 62, N (3(4((4-isobutyrylpiperazin-1-yl)methyl)-6-(5-methylthiazol-2-ylamino)pyridin-2-yl)phenyl)acrylamide]: the pIC50 on ITK is 8.09.
